# Laboratory results as given in paper PMC3922815 (PLoS ONE, 2014).
# Where “and” joins values, the source holds several entries; their conditions need not be identical. Identical values can stand only once. Like-named read-outs stand apart in the source and are kept apart here.
# Key:
# [1] = molecular target: human GABAA-receptor complexes α1β2γ2, α2β2γ2, α3β2γ2, α5β2γ2
# human GABAA α5β2γ2 [2] = molecular target: T1, human GABAA α5β2γ2 (Homo sapiens, UniProt P18507+P31644); assay: biochemical
# T1 sequence (P31644 32-462): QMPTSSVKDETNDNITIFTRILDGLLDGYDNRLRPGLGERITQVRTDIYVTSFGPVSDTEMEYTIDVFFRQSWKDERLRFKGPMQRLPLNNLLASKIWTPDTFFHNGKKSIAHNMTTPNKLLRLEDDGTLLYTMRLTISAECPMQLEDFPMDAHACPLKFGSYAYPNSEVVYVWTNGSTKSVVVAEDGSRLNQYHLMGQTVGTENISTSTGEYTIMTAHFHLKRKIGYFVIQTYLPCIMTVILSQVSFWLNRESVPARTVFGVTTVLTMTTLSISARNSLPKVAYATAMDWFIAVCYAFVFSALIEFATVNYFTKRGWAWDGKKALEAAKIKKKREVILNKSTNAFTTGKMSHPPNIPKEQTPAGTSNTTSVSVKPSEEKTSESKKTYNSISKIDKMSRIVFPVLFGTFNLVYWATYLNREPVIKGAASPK
# T1 sequence (P47870 25-512 partner limits assumed): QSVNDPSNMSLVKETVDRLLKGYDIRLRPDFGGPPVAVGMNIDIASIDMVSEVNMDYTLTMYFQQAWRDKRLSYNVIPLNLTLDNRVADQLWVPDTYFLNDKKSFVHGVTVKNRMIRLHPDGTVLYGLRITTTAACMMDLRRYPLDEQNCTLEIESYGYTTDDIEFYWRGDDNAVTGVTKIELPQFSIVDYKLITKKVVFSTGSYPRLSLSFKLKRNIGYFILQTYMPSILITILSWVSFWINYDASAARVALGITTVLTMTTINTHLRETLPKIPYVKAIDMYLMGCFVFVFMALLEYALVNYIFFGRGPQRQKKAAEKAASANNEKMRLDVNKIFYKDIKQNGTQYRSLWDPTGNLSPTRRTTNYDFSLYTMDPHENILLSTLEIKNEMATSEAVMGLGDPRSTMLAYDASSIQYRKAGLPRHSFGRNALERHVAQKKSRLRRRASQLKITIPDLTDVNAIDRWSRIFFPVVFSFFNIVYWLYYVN
# T1 sequence (P18507 40-475): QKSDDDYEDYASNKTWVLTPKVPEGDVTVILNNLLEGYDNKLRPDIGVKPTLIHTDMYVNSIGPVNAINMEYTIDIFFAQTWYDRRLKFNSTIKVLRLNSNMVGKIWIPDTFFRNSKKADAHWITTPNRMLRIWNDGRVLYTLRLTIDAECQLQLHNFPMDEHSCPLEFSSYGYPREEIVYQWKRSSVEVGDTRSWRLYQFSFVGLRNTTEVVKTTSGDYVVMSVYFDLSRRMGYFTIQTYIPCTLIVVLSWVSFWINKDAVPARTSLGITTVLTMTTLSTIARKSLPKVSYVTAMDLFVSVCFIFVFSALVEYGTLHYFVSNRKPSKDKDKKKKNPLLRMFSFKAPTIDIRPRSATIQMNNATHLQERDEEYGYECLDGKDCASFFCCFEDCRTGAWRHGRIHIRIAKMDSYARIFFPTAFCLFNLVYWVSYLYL
# [3] = test system: PTZ and audiogenic-induced seizures; design: method as in PMID 10816315; conditions: PTZ and audiogenic-induced seizures in mice; cited from earlier work
# human GABAA α5β2γ2 [4] = molecular target: T1, human GABAA α5β2γ2; conditions: Ki α5β2γ2 / Ki α2β2γ2
# human GABAA α1β2γ2 [5] = molecular target: T2, human GABAA α1β2γ2 (Homo sapiens, UniProt P14867+P18507); assay: biochemical
# T2 sequence (P14867 28-456): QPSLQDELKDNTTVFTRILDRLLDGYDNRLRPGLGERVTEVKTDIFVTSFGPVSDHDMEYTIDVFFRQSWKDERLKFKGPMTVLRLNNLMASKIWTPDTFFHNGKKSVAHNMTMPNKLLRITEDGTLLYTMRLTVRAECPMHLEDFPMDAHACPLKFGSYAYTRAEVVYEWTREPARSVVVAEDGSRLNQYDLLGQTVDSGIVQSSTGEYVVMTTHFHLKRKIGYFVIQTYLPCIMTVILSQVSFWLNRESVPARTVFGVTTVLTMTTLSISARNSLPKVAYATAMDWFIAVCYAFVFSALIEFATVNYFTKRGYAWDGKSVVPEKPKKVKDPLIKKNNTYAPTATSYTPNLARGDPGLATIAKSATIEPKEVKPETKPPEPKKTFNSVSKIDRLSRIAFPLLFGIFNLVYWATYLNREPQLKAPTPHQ
# T2 sequence (P47870 25-512 partner limits assumed): as the sequence (P47870 25-512 partner limits assumed) above
# T2 sequence (P18507 40-475): as the sequence (P18507 40-475) above
# human GABAA α2β2γ2 [6] = molecular target: T3, human GABAA α2β2γ2 (Homo sapiens, UniProt P18507+P47869); assay: biochemical
# T3 sequence (P47869 29-451): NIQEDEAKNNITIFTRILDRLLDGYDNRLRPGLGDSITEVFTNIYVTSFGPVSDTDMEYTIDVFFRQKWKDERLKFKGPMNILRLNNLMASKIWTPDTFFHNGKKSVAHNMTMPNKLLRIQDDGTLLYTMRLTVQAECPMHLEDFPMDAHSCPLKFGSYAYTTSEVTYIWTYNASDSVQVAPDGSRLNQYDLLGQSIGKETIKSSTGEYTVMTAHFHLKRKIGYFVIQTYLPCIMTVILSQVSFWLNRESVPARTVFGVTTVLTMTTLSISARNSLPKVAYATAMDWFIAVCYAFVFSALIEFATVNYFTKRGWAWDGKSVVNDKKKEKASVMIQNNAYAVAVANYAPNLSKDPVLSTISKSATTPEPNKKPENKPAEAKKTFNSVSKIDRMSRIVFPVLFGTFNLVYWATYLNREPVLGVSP
# T3 sequence (P47870 25-512 partner limits assumed): as the sequence (P47870 25-512 partner limits assumed) above
# T3 sequence (P18507 40-475): as the sequence (P18507 40-475) above
# human GABAA α1β2γ2 [7] = molecular target: T2, human GABAA α1β2γ2; conditions: for Binding affinity normalized to GABAA α2 (ratio of Ki values): Ki α1β2γ2 / Ki α2β2γ2
# [8] = molecular target: native GABAA receptors from rat-brain homogenates
# human GABAA α2β2γ2 [9] = molecular target: T3, human GABAA α2β2γ2
# human GABAA α3β2γ2 [10] = molecular target: T4, human GABAA α3β2γ2 (Homo sapiens, UniProt P18507+P34903); assay: biochemical
# T4 sequence (P34903 29-492): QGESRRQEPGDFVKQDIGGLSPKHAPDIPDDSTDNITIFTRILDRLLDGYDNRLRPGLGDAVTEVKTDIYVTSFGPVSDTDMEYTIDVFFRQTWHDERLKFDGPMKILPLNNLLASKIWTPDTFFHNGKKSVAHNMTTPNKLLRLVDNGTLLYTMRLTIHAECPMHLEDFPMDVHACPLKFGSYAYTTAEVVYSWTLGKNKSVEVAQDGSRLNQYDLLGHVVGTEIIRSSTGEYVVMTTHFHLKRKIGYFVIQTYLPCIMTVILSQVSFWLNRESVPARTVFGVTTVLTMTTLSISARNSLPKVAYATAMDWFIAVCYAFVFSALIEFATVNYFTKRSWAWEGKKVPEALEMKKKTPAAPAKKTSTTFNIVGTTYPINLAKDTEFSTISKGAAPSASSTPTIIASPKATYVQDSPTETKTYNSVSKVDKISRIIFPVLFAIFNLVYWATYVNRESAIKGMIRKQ
# T4 sequence (P47870 25-512 partner limits assumed): as the sequence (P47870 25-512 partner limits assumed) above
# T4 sequence (P18507 40-475): as the sequence (P18507 40-475) above
# human GABAA α3β2γ2 [11] = molecular target: T4, human GABAA α3β2γ2; conditions: Ki α3β2γ2 / Ki α2β2γ2
# [12] = test system: pentylenetetrazole (PTZ)-induced seizures; design: method as in PMID 17092983; conditions: greatest diazepam dosage, cited from earlier work
# [13] = test system: tonic convulsions following PTZ administration; design: method as in PMID 11021797; conditions: cited from earlier work; for percentage of mice convulsing: 3 mg/kg
# [14] = cited from earlier work
# human GABAA α5β2γ2 [15] = molecular target: T1, human GABAA α5β2γ2
# human GABAA α2β2γ2 [16] = molecular target: T3, human GABAA α2β2γ2; remark: listed apart in the source
# [17] = test system: refractory epilepsy patients; design: method as in PMID 3828198; conditions: dosages giving concentrations similar to those after clobazam dosing; cited from earlier work
# human GABAA α3β2γ2 [18] = molecular target: T4, human GABAA α3β2γ2
structure (smiles),measurement,setting,value
Cc1ccc(-c2nc3ccc(C)cn3c2CC(=O)N(C)C)cc1 [Zolpidem],Ki,[1],30 to 5430 nM
same,Ki,human GABAA α5β2γ2 [2],5430 nM
"Cn1ncnc1COc1nn2c(-c3cc(F)ccc3F)nnc2cc1C(C)(C)C [L-838,417]",anticonvulsant activity,[3],retains anticonvulsant activity
O=C1CN=C(c2ccccc2Cl)c2cc([N+](=O)[O-])ccc2N1 [Clonazepam],Binding affinity normalized to GABAA α2 (ratio of Ki values),human GABAA α5β2γ2 [4],1.1
same,Ki,[1],0.65 to 2.2 nM
same,Ki,human GABAA α1β2γ2 [5],0.65 nM
same,Ki,human GABAA α2β2γ2 [6],0.72 nM
same,Binding affinity normalized to GABAA α2 (ratio of Ki values),human GABAA α1β2γ2 [7],0.9
same,Ki,[8],0.263 nM and 0.26 nM
same,Binding affinity normalized to GABAA α2 (ratio of Ki values),human GABAA α2β2γ2 [9],1
same,Ki,human GABAA α5β2γ2 [2],0.78 nM
same,Ki,human GABAA α3β2γ2 [10],2.24 nM
CN1C(=O)CC(=O)N(c2ccccc2)c2cc(Cl)ccc21 [Clobazam],Binding affinity normalized to GABAA α2 (ratio of Ki values),human GABAA α5β2γ2 [4],1.6
same,Ki,human GABAA α1β2γ2 [5],519 nM
same,Ki,human GABAA α2β2γ2 [6],205 nM
same,Binding affinity normalized to GABAA α2 (ratio of Ki values),human GABAA α1β2γ2 [7],2.5
same,Binding affinity normalized to GABAA α2 (ratio of Ki values),human GABAA α3β2γ2 [11],3.7
same,Ki,[8],151 nM
same,Binding affinity normalized to GABAA α2 (ratio of Ki values),human GABAA α2β2γ2 [9],1
same,Ki,human GABAA α5β2γ2 [2],331 nM
same,Ki,human GABAA α3β2γ2 [10],753 nM
CN1C(=O)CN=C(c2ccccc2F)c2cc([N+](=O)[O-])ccc21 [^3H-flunitrazepam],Kd,"[8]; read-out: Kd (tracer equilibrium dissociation constant), saturation binding, rat-brain homogenates",1.5 ± 0.2 nM
CN1C(=O)CN=C(c2ccccc2)c2cc(Cl)ccc21 [diazepam],seizure level on the Racine scale,"[12]; wild-type mice, reversed from 6",1
same,seizure scoring on the Racine scale,[12]; α2(H101R) mice,approximately 3.5
same,percentage of mice convulsing,[13]; wild-type mice,approximately 20%
same,percentage of mice convulsing,[13]; α2(H101R) mice,approximately 50%
same,protection from tonic convulsions,"[13]; 10 and 30 mg/kg, both wild-type and α2(H101R) mice",100%
O=C1CC(=O)N(c2ccccc2)c2cc(Cl)ccc2N1 [N-desmethylclobazam],Binding affinity normalized to GABAA α2 (ratio of Ki values),human GABAA α5β2γ2 [4],2.0
same,half-life,[14]; humans,79 h
same,concentration of N-CLB relative to the parent compound,[14]; prolonged clinical use of CLB,more than 2 fold
same,Ki,human GABAA α5β2γ2 [15],295 nM and 292 nM
same,Ki,human GABAA α2β2γ2 [16],148 nM and 147 nM
same,patients responding favorably,[17],8 of 9
same,Ki,human GABAA α3β2γ2 [18],661 nM and 668 nM
same,Ki,human GABAA α1β2γ2 [7],631 nM and 634 nM
same,Binding affinity normalized to GABAA α2 (ratio of Ki values),human GABAA α1β2γ2 [7],4.3
same,Binding affinity normalized to GABAA α2 (ratio of Ki values),human GABAA α3β2γ2 [11],4.6
same,Ki,[8],132 nM and 133 nM
same,Binding affinity normalized to GABAA α2 (ratio of Ki values),human GABAA α2β2γ2 [9],1
